Key:
[1] = system: CVB3 97927-I1207T (pleconaril-resistant variant); type: cell-based, coxsackievirus B3
HeLa cells = details: human
[2] = system: CVB3 97927-I1207M (pleconaril-resistant variant); type: cell-based, coxsackievirus B3
rhinovirus A2 (RV-A2) = assay: organism not typed; type: cell-based; details: HeLa, 72 h, read-out: IC50 against Rhinoviruses (RV) RV-A2
rhinovirus B14 (RV-B14) = assay: organism not typed; type: cell-based; details: HeLa, 72 h, read-out: IC50 against Rhinoviruses (RV) RV-B14
[3] = system: Enterovirus D68 (EV-D68 MP30 PP); type: in vivo, AG129 mice; details: guanidine 100 mg/kg/d IP, days 1 and 3 post-infection
[4] = system: CVB3 97927-I1207K (pleconaril-resistant variant); type: cell-based, coxsackievirus B3
rhinovirus B5 (RV-B5) = assay: organism not typed; type: cell-based; details: HeLa cells, CPE inhibition, 72 hours; n.a. = not active; read-out: IC50 against Rhinoviruses (RV) RV-B5
poliovirus = details: mouse, in vivo; cited from earlier work
poliomyelitis virus = details: cited from earlier work
[5] = system: coxsackievirus B3 I1207K and I1207R; details: in vitro; cited from earlier work
in vitro = details: human, HeLa cells
[6] = system: clinical isolates of enterovirus serotypes; details: most of 215 clinical isolates of enterovirus serotypes; cited from earlier work
PXR = PXR (Homo sapiens, UniProt O75469); assay: biochemical
Chain of PXR (O75469 111-434 limits assumed): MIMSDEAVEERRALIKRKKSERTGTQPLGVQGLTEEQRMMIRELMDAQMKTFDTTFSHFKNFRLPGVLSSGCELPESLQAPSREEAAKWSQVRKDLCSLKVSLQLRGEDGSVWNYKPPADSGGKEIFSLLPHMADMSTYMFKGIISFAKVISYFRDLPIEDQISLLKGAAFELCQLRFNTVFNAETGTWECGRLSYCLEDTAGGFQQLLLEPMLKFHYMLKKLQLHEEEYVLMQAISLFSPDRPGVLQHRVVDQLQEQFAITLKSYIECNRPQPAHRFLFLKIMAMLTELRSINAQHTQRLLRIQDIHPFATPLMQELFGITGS

| Compound | IC50 [1] [nM] | CC50 (HeLa cells) [nM] | IC50 [2] [nM] | IC50 (rhinovirus A2 (RV-A2)) [nM] | IC50 (rhinovirus B14 (RV-B14)) [nM] | lung virus titers compared to placebo [3] | IC50 [4] [nM] | IC50 (rhinovirus B5 (RV-B5)) [nM] | Mutagenicity (Escherichia coli PQ37) | poliovirus-induced paralysis and death (poliovirus) | replication of poliomyelitis virus in vitro (poliomyelitis virus) | antiviral activity against coxsackievirus B3 with I1207K or I1207R in VP1 [5] | CC50 (in vitro) [nM] | IC50 [6] [nM] | IC50 (PXR) [nM] |
| --- | --- | --- | --- | --- | --- | --- | --- | --- | --- | --- | --- | --- | --- | --- | --- |
| CNC(=O)c1cc(CCCOc2ccc(-c3noc(C(F)(F)F)n3)cc2C(F)(F)F)on1 [Compound 13, N-methyl-5-(3-{2-(trifluoromethyl)-4-[5-(trifluoromethyl)-1,2,4-oxadiazol-3-yl]phenoxy}propyl)isoxazole-3-carboxamide] | 1040 | > 100000 | 60 | 960 |  |  |  |  |  |  |  |  |  |  |  |
| Cc1cc(-c2noc(C(F)(F)F)n2)cc(C)c1OCCCc1cc(C(N)=O)no1 [Compound 3, 5-(3-{2,6-dimethyl-4-[5-(trifluoromethyl)-1,2,4-oxadiazol-3-yl]phenoxy}propyl)isoxazole-3-carboxamide] |  | > 100000 | 1690 | 500 | 220 |  |  |  |  |  |  |  |  |  |  |
| Cc1cc(-c2noc(C(F)(F)F)n2)cc(C)c1OCCCc1cc(C(=O)NCc2ccccc2)no1 [Compound 1, N-benzyl-5-(3-{2,6-dimethyl-4-[5-(trifluoromethyl)-1,2,4-oxadiazol-3-yl]phenoxy}propyl)isoxazole-3-carboxamide] |  | > 100000 | 13100 | 230 | 250 |  |  |  |  |  |  |  |  |  |  |
| Guanidine HCl [Gua- HCl, reference compound] | 807000 |  | 725000 |  |  | reduction in virus titers | 705000 |  |  |  |  |  |  |  |  |
| CN(C)C(=O)c1cc(CCCOc2ccc(-c3noc(C(F)(F)F)n3)cc2[N+](=O)[O-])on1 [Compound 7, N,N-dimethyl-5-(3-{2-nitro-4-[5-(trifluoromethyl)-1,2,4-oxadiazol-3-yl]phenoxy}propyl)isoxazole-3-carboxamide] | 30 | 22500 | 1 | 670 | 280 |  | 6460 | 7630 | NO |  |  |  |  |  |  |
| COc1cc(-c2noc(C(F)(F)F)n2)ccc1OCCCc1cc(C(=O)N(C)C)no1 [Compound 6, 5-(3-{2-methoxy-4-[5-(trifluoromethyl)-1,2,4-oxadiazol-3-yl]phenoxy}propyl)-N,N-dimethylisoxazole-3-carboxamide] | 1660 | 68000 | 600 | 1970 | 40 |  | 51700 | 3280 |  |  |  |  |  |  |  |
| CCC(=O)C(CCCCCCOc1ccc(OC)cc1Cl)C(=O)CC [Arildone] |  |  |  |  |  |  |  |  |  | prevents poliovirus-induced paralysis and death in mice | specifically inhibits replication of poliomyelitis virus in vitro |  |  |  |  |
| CNC(=O)c1cc(CCCOc2c(C)cc(-c3noc(C(F)(F)F)n3)cc2C)on1 [Compound 2, 5-(3-{2,6-dimethyl-4-[5-(trifluoromethyl)-1,2,4-oxadiazol-3-yl]phenoxy}propyl)-N-methylisoxazole-3-carboxamide] |  | > 100000 | 370 | 210 | 20 |  |  |  | NO |  |  |  |  |  |  |
| COc1cc(-c2noc(C(F)(F)F)n2)cc([N+](=O)[O-])c1OCCCc1cc(C(=O)N(C)C)no1 [Compound 10, 5-(3-{2-methoxy-6-nitro-4-[5-(trifluoromethyl)-1,2,4-oxadiazol-3-yl]phenoxy}propyl)-N,N-dimethylisoxazole-3-carboxamide] | 840 | 25600 | 880 | 320 | 200 |  |  |  |  |  |  |  |  |  |  |
| CN(C)C(=O)c1cc(CCCOc2ccc(-c3noc(C(F)(F)F)n3)cc2)on1 [Compound 11, N,N-dimethyl-5-(3-{4-[5-(trifluoromethyl)-1,2,4-oxadiazol-3-yl]phenoxy}propyl)isoxazole-3-carboxamide] | 8110 | 28000 | 20 | 4610 | 40 |  | 27500 | 1740 |  |  |  |  |  |  |  |
| Cc1cc(CCCOc2c(C)cc(-c3noc(C(F)(F)F)n3)cc2C)on1 [Pleconaril, reference compound] | 9410 |  | 4500 |  | 60 |  |  |  |  |  |  | completely abolish the antiviral activity | 45200 | ≤ 30 | > 100000 |
| CN(C)C(=O)c1cc(CCCOc2ccc(-c3noc(C(F)(F)F)n3)cc2F)on1 [Compound 9, 5-(3-{2-fluoro-4-[5-(trifluoromethyl)-1,2,4-oxadiazol-3-yl]phenoxy}propyl)-N,N-dimethylisoxazole-3-carboxamide] | 1430 | 20200 | 50 | 3770 | 50 |  |  | 4040 |  |  |  |  |  |  |  |
| Cc1cc(-c2noc(C(F)(F)F)n2)cc(C)c1OCCCc1cc(C(=O)N(C)C)no1 [Compound 4, 5-(3-{2,6-dimethyl-4-[5-(trifluoromethyl)-1,2,4-oxadiazol-3-yl]phenoxy}propyl)-N,N-dimethylisoxazole-3-carboxamide] | 1010 | 13200 | < 30 | 120 | 120 |  | 8520 |  | NO |  |  |  |  |  |  |
| CN(C)C(=O)c1cc(CCCOc2ccc(-c3noc(C(F)(F)F)n3)cc2C(F)(F)F)on1 [Compound 12, N,N-dimethyl-5-(3-{2-(trifluoromethyl)-4-[5-(trifluoromethyl)-1,2,4-oxadiazol-3-yl]phenoxy}propyl)isoxazole-3-carboxamide] | 530 | 19200 | 160 | 320 | 6760 |  | 7180 |  | NO |  |  |  |  |  |  |
